{"source": "patent US20250066310A1", "about": "“MULTI-SUBSTITUTED URACIL DERIVATIVE AND PREPARATION METHOD THEREFOR AND APPLICATION THEREOF” (HANGZHOU ADAMERCK PHARMLABS INC., priority 2021, published 2025)", "key": {"[1]": {"tested_on": "rats with autologous thrombus and thrombin-induced cerebral ischemic injury", "assay": "Ischemic brain injury induced by autologous thrombus and thrombin in rats (i.v., alone or with urokinase)", "type": "in vivo, SD rats", "settings": "n = 10", "method": "Experimental Methods: A model of cerebral ischemic injury in SD rats was prepared by embolizing the middle cerebral artery of rats with autologous thrombus and thrombin via the external carotid artery to the internal carotid artery and the rats were randomly divided into 5 groups according to behavioral scores, a sham group (only the external carotid artery was isolated); a model-control group (saline was given to both groups in equal volume); urokinase (5000 U/kg) group; compound 1-1 ([…]) group; with 20 animals in each group (10 for detecting the rate of cerebral infarction, and the other 10 for pathological testing). Each group was administered slowly in the tail vein (1 ml per minute) 2 h after modeling, and the decrease in blood flow was monitored after thrombin injection and 120 min after administration. Neurobehavioral scoring was performed on the rats after 24 h to determine the neurological function of the rats; 2,3,5-triphenyltetrazolium chloride (TTC) staining was used to determine the rate of cerebral infarction and cerebral water content, and hematoxylin-eosin (HE) staining was used to observe the pathological damage of the brain in rats administered with the drug 2 h after cerebral ischemia."}, "[2]": {"tested_on": "rats with focal cerebral ischemia (MCAO)/reperfusion", "assay": "Prophylactic administration, cerebral ischemia-reperfusion injury (MCAO/R) in rats", "type": "in vivo", "settings": "6 mg/kg tail vein, Mean ± SD, n = 8", "method": "Experimental methods: SD rats were randomly divided into 6 groups, set as sham group, model control group, positive control drug ozagrel (6 mg/kg) group, and test drug compound 1-1 high (9 mg/kg), medium (3 mg/kg), and low (1 mg/kg) dose group. The administered groups were preadministered by tail vein injection, and the sham and model control groups were given an equal volume of saline, once a day for 3 consecutive days. Ten minutes after the last administration, the rat MCAO/R model was established, and reperfusion was performed 2 h after ischemia. 24 h after MCAO reperfusion, neurobehavioral scores were performed to determine the neurological function of rats; 2,3,5-triphenyltetrazolium chloride (TTC) staining method was used to determine the rate of cerebral infarction and cerebral water content in rats."}, "[3]": {"tested_on": "ICR mice", "assay": "Effect on in vivo bleeding time in mice (tail cut)", "settings": "15 mg/kg i.g. once daily for 4 days", "method": "A normal control group (blank), positive control group (clopidogrel) and experimental groups were set up with 10 ICR mice (male, weighed about 25 g) in each group. Animals in each group were administered the corresponding drug solution by oral gavage (i.g.) at 0.1 ml/10 g body weight, and the blank control group was given distilled water, once daily for 4 days. On the 4th day, 1 h after the administration of the drug, the animals were anesthetized by intraperitoneal injection of sodium barbiturate at a dose of about 50 mg/kg, and 20 min later, the tails of the mice were cut at a distance of 3 mm from the tip of the tail, and at regular intervals, absorbent paper was used to dip the blood at the severed tails until no blood exuded, which was recorded as the bleeding time, and the results of the experiment were shown in Table 2.\nCalculation equation for prolongation of bleeding time: […]"}, "[4]": {"tested_on": "rats with myocardial ischemia-reperfusion injury", "assay": "Myocardial ischemia-reperfusion injury caused by coronary artery ligation in rats", "type": "in vivo", "settings": "x ± s, n = 8", "method": "Experimental Methods: A model of myocardial ischemia/reperfusion (MI/R) injury caused by coronary artery ligation was established in rats, and animals were grouped into high-dose (20 mg/kg), medium-dose (10 mg/kg), low-dose (5 mg/kg) of the test drug, clopidogrel (7.5 mg/kg), sham, and model groups. Equal volume of 0.5% CMC-Na was administered at 0.5 ml/100 g body weight in both sham and model groups. The drug was administered by gavage (i.g.) once a day for 5 consecutive days. Modeling was performed 30 min after the last administration, and after modeling, 8 successfully modeled rats were selected from each group for subsequent experiments. The sham group was placed a wire under the left anterior descending branch of the coronary artery according to the model preparation method without ligation, and the other groups were modeled according to the model preparation method. The effects of the test drugs on the cardiac infarction rate and the biochemical indexes of creatine kinase (CK), lactate dehydrogenase (LDH), malondialdehyde (MDA), and superoxide dismutase (SOD) in plasma were detected, and TTC staining of the heart was performed to detect the effects of the test drugs on the area of myocardial infarction in MI/R rats."}, "[5]": {"tested_on": "mice injected with ellagic acid via the tail vein", "assay": "Effect on in vivo clotting time in mice (ellagic acid tail vein injection)", "settings": "Mus musculus, iv, 100 mg/kg i.g. for 4 days, ellagic acid i.v. 1 h after last dose, vs model group, read-out: Clotting time prolongation (%)", "method": "The control and model groups were gavaged with distilled water, and the positive clopidogrel group, and the test substance group were gavaged orally (i.g.) with drug solution in a volume of 0.1 mL/10 g for 4 consecutive days. 1 h after the last administration, all groups were injected with 0.15 mL/10 g of 0.3% ellagic acid solution via tail vein injection except for the blank group which was injected with physiological saline: 0.1 ml/10 g. After 5 min, glass capillaries were used for blood collection through the retro-orbital venous plexus, and the appearance time of coagulation filaments was recorded by glass capillaries at 10-second intervals.\nCalculation equation for prolongation of clotting time:\nProlongation of clotting time (%)=[(mean value of clotting time in blank or administered group/mean value of clotting time in model group)−1]×100%"}}}
{"compound": "Urokinase", "values": [{"measurement": "Cerebral infarction rate", "setting": "[1]; 5000 U/kg i.v., TTC staining, mean ± S.D.", "value": "9.72 ± 9.89"}, {"measurement": "behavioral score", "setting": "[1]; 5000 U/kg i.v., after 24 h, Mean ± SD", "value": "1.60 ± 0.70"}, {"measurement": "cerebral water content (%)", "setting": "[1]; 5000 U/kg i.v., mean ± S.D.", "value": "79.78 ± 0.72", "unit": "%"}, {"measurement": "Percentage decrease two hours after administration (%)", "setting": "[1]; cerebral blood flow, 5000 U/kg i.v. 2 h after modeling, Mean ± SD", "value": "37.12 ± 4.49", "unit": "%"}, {"measurement": "Percentage decrease after thrombin injection (%)", "setting": "[1]; cerebral blood flow, before administration, 5000 U/kg group, Mean ± SD", "value": "50.10 ± 7.94", "unit": "%"}, {"measurement": "Pathology Score", "setting": "[1]; cerebral ischemic areas, 5000 U/kg i.v., mean ± SD", "value": "1.75 ± 0.86"}]}
{"compound": "O=C(O)/C=C/c1ccc(Cn2ccnc2)cc1", "note": "[Ozagrel, ozagrel, reference compound]", "values": [{"measurement": "Cerebral infarction rate (%)", "setting": "[2]; 3 days before MCAO/R, 24 h after reperfusion", "value": "17.07 ± 10.69", "unit": "%"}, {"measurement": "behavioral score", "setting": "[2]; MCAO/R", "value": "1.50 ± 0.76"}, {"measurement": "cerebral water content (%)", "setting": "[2]; MCAO/R", "value": "81.00 ± 0.98", "unit": "%"}]}
{"compound": "COC(=O)[C@H](c1ccccc1Cl)N1CCc2sccc2C1", "note": "[Clopidogrel, clopidogrel, reference compound]", "values": [{"measurement": "Bleeding time prolongation (%)", "setting": "[3]", "value": ">579.89", "unit": "%"}, {"measurement": "Cardiac infarction rate (%)", "setting": "[4]; 7.5 mg/kg i.g. once a day for 5 days", "value": "14.29 ± 6.82", "unit": "%"}, {"measurement": "Pathological Score", "setting": "[4]; myocardium, 7.5 mg/kg i.g.", "value": "1.88 ± 0.64"}, {"measurement": "CK (U/mL)", "setting": "[4]; plasma, 7.5 mg/kg i.g.", "value": "0.32 ± 0.20", "unit": "U/mL"}, {"measurement": "LDH (U/L)", "setting": "[4]; plasma, 7.5 mg/kg i.g.", "value": "8522.72 ± 626.17", "unit": "U/L"}, {"measurement": "MDA", "setting": "[4]; plasma, 7.5 mg/kg i.g.", "value": "15.90 ± 1.37", "unit": "nmol/mL"}, {"measurement": "SOD (U/mL)", "setting": "[4]; plasma, 7.5 mg/kg i.g.", "value": "40.92 ± 1.67", "unit": "U/mL"}, {"measurement": "change in vivo at 100 mg/kg", "setting": "[5]", "value": 36.8, "unit": "%"}]}
